Measured values from US20080214606A1, “Methods for the Identification and Use of Compounds Suitable for the Treatment of Drug Resistant Cancer Cells” (The Government of the United States of America as …, priority 2004, published 2008).
Like-named read-outs stand apart in the source and are kept apart here.

How the values were obtained:
ABCB11 = target: T1, ABCB11 (Homo sapiens, UniProt O95342); assay: Correlation of ABCB11 expression with drug sensitivity across the NCI-60; format: cell-based; details: Pearson correlation of ABCB11 expression with sensitivity of the 60 cell lines; 1429 compounds; inverse, p < 0.0001
T1 construct: profiled in 60 diverse cancer cell lines (the NCI-60) using real-time RT-PCR; endogenous in cells; host or cells: NCI-60 human cancer cell lines
Procedure: (§1) Expression levels are measured by real-time quantitative RT-PCR using the LightCycler RNA Amplification SYBR Green kit and a LightCycler machine (Roche Biochemicals, Indianapolis, Ind.). […] When possible, the amplicons are designed to encompass exon-intron boundaries to avoid amplification of genomic DNA. Since the Syber Green assay detects accumulation of double stranded DNA, primers are selected (from a battery consisting of about 200 primers) that amplified a single product of the correct size.
(§2) RT-PCR is carried out on 150 ng total RNA, in the presence of 250 nM specific primers. Following reverse transcription (20 min at 50° C.), the PCR reaction consists of 45 cycles of denaturation (15 sec at 95° C.), annealing (30 sec at 58° C.), and elongation (30 sec at 72° C.). No-template (water) reaction mixtures are prepared as negative controls.
(§3) During PCR amplification, fluorescence emission is measured and recorded in real time by the LightCycler. Crossing point values are calculated, using the LightCycler software package, by the Fit Points analysis method, with baseline fluorescence set at 1. The SyberGreen assay measures accumulation of double-stranded products, and the appearance of primer dimers limits quantitation at high cycle numbers. The specificity of amplified products is verified by melting-curve analysis and agarose gel electrophoresis (not shown). The raw results are expressed as number of cycles to reach the crossing point. If the desired product is not detected, the corresponding value is adjusted to crossing points indicating no expression. To assess the contribution of experimental artifacts, selected cell lines are assessed in replicate.
(§4) The two are combined to form a joint dataset that includes 1429 compounds.
(§5) In the Benjamini-Hochberg procedure the p-values are computed in the standard way by permutation, assuming that all distributions are exchangeable: the number of values in the permuted data with correlations over a threshold, divided by the number of compounds and by the number of permutations. In this analysis, the False Discovery Rate (q-value) at which each compound would be declared was calculated using the step-up procedure for positively correlated test statistics (again true because all correlations being compared are computed against the same ABC gene): in this procedure the first q-value for the largest correlation is the Bonferroni-corrected p-value for that gene; then further q-values are calculated as qj=max(pj*1429/j, qj-1). This procedure limits the expected proportion of false positives in the list 1, . . . , j to at most qj.

ABCC5 = target: T2, ABCC5 (Homo sapiens, UniProt O15440); assay: Correlation of ABCC5 expression with drug sensitivity across the NCI-60; format: cell-based; details: Pearson correlation of ABCC5 expression with sensitivity of the 60 cell lines; 1429 compounds; inverse, p < 0.0001
T2 construct: profiled in 60 diverse cancer cell lines (the NCI-60) using real-time RT-PCR; endogenous in cells; host or cells: NCI-60 human cancer cell lines
T2 sequence (O15440 whole entry): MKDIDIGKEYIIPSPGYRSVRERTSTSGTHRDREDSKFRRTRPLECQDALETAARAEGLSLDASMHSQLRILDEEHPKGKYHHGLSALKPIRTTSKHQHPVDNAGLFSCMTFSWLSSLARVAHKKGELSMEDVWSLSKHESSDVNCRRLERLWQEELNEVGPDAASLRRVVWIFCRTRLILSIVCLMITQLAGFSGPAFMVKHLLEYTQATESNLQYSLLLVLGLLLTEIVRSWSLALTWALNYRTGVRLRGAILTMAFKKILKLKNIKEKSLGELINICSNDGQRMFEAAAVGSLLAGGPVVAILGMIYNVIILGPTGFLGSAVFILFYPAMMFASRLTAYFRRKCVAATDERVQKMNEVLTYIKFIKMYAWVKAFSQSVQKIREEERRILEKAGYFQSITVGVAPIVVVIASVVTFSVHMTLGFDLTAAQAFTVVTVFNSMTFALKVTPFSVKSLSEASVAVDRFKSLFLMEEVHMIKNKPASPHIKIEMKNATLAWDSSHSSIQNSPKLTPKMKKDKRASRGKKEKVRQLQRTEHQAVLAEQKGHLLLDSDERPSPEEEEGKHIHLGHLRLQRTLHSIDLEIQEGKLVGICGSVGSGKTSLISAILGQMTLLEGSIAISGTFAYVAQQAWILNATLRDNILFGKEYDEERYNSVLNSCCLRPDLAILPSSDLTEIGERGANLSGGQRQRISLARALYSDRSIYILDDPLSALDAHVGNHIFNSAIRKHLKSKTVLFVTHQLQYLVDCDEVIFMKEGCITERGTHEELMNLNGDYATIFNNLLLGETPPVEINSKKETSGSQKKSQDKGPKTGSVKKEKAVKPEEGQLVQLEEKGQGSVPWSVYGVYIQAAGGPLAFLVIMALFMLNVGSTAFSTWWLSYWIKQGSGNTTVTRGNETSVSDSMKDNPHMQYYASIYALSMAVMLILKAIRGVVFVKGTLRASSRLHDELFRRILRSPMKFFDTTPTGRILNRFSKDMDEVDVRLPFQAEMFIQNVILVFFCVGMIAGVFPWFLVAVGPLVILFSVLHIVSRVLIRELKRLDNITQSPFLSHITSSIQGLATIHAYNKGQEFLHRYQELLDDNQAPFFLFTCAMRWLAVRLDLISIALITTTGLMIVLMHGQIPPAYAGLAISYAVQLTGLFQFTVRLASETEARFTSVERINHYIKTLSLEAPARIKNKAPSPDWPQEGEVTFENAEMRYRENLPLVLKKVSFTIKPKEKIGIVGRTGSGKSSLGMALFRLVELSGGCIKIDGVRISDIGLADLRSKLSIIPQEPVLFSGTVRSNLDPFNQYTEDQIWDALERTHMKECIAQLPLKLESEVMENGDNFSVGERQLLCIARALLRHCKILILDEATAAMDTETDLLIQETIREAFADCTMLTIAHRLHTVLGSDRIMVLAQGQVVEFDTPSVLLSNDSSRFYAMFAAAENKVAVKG
Procedure: as §1, §2, §3, §4, §5

MDR1 = MDR1 (Homo sapiens, UniProt P08183); details: cited from earlier work; for Interaction with MDR1: tested in various laboratories
Chain of MDR1 (P08183 whole entry): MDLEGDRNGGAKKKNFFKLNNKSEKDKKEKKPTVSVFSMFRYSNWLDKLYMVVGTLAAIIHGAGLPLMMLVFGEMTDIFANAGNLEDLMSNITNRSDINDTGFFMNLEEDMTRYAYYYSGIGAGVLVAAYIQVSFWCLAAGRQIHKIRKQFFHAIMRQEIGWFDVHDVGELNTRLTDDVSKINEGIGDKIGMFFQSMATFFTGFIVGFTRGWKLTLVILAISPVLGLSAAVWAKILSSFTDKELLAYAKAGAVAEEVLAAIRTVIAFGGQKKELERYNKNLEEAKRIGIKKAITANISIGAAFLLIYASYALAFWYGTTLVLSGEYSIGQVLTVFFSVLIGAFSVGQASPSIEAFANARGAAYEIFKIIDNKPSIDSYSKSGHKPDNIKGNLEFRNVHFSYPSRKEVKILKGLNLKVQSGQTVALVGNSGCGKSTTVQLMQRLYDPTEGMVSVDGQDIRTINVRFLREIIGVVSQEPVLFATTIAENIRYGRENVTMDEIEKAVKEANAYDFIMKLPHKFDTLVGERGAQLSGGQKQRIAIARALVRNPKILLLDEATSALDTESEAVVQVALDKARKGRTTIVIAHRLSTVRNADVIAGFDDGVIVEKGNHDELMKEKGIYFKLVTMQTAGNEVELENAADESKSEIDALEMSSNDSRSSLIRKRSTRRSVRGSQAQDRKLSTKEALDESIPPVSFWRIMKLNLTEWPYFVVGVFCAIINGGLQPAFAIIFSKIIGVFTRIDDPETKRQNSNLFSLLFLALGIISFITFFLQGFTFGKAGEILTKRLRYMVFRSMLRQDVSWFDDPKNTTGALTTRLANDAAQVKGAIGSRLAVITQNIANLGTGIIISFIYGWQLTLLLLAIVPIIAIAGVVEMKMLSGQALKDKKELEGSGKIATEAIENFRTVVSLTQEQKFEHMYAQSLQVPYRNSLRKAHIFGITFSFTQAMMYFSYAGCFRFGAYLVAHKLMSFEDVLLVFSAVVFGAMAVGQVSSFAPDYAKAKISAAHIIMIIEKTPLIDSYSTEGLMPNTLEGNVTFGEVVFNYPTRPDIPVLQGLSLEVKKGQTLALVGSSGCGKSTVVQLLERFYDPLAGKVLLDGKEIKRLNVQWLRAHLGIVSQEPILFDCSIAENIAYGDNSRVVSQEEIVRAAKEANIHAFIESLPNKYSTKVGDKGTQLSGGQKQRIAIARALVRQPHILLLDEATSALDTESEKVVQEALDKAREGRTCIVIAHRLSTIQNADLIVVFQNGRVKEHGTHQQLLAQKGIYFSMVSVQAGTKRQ

ABCB1 = ABCB1 (Homo sapiens, UniProt P08183); assay: Correlation of ABCB1 expression with drug sensitivity across the NCI-60
Procedure, shortened: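 SYBR Green real-time RT-PCR on 150 ng total RNA with 250 nM primers: RT 20 min at 50 °C, then 45 cycles; expression taken as crossing-point cycle number. Correlated with drug sensitivity of 1429 compounds across the cell panel; permutation p-values with step-down and step-up (FDR q-value) multiple-testing correction.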

ABCC1 = target: T3, ABCC1 (Homo sapiens, UniProt P33527); assay: Correlation of ABCC1 expression with drug sensitivity across the NCI-60; format: cell-based; details: Pearson correlation of ABCC1 expression with sensitivity of the 60 cell lines; 1429 compounds; inverse, p < 0.0001
T3 construct: profiled in 60 diverse cancer cell lines (the NCI-60) using real-time RT-PCR; endogenous in cells; host or cells: NCI-60 human cancer cell lines
Procedure: as §1, §2, §3, §4, §5

ABCB5 = target: T4, ABCB5 (Homo sapiens, UniProt Q2M3G0); assay: Correlation of ABCB5 expression with drug sensitivity across the NCI-60; format: cell-based; details: Pearson correlation of ABCB5 expression with sensitivity of the 60 cell lines; 1429 compounds; inverse, p < 0.0001
T4 construct: profiled in 60 diverse cancer cell lines (the NCI-60) using real-time RT-PCR; endogenous in cells; host or cells: NCI-60 human cancer cell lines
T4 sequence (Q2M3G0 1-1257): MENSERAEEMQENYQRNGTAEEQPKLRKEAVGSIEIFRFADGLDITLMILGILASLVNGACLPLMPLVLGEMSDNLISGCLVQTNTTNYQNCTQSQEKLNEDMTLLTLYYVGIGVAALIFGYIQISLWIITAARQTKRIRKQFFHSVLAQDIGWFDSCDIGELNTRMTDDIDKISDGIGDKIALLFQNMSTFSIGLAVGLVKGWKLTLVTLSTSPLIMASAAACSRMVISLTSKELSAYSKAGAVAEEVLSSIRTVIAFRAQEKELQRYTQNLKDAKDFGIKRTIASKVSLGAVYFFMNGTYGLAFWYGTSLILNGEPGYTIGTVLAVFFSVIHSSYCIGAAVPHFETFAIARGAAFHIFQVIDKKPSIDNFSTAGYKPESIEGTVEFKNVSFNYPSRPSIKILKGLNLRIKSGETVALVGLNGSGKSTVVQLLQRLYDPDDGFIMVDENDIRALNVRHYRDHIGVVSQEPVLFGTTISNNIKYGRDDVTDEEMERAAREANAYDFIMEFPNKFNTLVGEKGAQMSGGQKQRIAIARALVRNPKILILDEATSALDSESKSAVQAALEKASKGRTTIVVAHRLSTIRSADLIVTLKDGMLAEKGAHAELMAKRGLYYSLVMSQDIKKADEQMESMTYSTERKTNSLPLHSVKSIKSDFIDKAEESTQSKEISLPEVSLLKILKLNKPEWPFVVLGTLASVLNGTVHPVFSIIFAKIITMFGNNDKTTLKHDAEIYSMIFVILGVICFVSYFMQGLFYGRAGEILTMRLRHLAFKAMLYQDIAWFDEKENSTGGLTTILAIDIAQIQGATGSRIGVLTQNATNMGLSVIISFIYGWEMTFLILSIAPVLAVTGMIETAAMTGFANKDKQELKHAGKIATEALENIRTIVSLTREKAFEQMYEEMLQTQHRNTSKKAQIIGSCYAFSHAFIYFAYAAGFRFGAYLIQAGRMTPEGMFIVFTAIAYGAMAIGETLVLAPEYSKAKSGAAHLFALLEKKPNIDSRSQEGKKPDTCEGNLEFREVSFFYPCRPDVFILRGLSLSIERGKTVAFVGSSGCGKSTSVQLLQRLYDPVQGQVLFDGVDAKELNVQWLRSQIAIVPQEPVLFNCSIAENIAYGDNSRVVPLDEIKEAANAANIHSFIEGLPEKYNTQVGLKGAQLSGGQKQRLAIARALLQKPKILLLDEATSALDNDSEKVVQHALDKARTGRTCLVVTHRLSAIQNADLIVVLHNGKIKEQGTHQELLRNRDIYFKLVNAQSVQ
Procedure: as §1, §2, §3, §4, §5

ABCA1 = target: T5, ABCA1 (Homo sapiens, UniProt O95477); assay: Correlation of ABCA1 expression with drug sensitivity across the NCI-60; format: cell-based; details: Pearson correlation of ABCA1 expression with sensitivity of the 60 cell lines; 1429 compounds; inverse, p < 0.0001
T5 construct: profiled in 60 diverse cancer cell lines (the NCI-60) using real-time RT-PCR; endogenous in cells; host or cells: NCI-60 human cancer cell lines
T5 sequence (O95477 whole entry): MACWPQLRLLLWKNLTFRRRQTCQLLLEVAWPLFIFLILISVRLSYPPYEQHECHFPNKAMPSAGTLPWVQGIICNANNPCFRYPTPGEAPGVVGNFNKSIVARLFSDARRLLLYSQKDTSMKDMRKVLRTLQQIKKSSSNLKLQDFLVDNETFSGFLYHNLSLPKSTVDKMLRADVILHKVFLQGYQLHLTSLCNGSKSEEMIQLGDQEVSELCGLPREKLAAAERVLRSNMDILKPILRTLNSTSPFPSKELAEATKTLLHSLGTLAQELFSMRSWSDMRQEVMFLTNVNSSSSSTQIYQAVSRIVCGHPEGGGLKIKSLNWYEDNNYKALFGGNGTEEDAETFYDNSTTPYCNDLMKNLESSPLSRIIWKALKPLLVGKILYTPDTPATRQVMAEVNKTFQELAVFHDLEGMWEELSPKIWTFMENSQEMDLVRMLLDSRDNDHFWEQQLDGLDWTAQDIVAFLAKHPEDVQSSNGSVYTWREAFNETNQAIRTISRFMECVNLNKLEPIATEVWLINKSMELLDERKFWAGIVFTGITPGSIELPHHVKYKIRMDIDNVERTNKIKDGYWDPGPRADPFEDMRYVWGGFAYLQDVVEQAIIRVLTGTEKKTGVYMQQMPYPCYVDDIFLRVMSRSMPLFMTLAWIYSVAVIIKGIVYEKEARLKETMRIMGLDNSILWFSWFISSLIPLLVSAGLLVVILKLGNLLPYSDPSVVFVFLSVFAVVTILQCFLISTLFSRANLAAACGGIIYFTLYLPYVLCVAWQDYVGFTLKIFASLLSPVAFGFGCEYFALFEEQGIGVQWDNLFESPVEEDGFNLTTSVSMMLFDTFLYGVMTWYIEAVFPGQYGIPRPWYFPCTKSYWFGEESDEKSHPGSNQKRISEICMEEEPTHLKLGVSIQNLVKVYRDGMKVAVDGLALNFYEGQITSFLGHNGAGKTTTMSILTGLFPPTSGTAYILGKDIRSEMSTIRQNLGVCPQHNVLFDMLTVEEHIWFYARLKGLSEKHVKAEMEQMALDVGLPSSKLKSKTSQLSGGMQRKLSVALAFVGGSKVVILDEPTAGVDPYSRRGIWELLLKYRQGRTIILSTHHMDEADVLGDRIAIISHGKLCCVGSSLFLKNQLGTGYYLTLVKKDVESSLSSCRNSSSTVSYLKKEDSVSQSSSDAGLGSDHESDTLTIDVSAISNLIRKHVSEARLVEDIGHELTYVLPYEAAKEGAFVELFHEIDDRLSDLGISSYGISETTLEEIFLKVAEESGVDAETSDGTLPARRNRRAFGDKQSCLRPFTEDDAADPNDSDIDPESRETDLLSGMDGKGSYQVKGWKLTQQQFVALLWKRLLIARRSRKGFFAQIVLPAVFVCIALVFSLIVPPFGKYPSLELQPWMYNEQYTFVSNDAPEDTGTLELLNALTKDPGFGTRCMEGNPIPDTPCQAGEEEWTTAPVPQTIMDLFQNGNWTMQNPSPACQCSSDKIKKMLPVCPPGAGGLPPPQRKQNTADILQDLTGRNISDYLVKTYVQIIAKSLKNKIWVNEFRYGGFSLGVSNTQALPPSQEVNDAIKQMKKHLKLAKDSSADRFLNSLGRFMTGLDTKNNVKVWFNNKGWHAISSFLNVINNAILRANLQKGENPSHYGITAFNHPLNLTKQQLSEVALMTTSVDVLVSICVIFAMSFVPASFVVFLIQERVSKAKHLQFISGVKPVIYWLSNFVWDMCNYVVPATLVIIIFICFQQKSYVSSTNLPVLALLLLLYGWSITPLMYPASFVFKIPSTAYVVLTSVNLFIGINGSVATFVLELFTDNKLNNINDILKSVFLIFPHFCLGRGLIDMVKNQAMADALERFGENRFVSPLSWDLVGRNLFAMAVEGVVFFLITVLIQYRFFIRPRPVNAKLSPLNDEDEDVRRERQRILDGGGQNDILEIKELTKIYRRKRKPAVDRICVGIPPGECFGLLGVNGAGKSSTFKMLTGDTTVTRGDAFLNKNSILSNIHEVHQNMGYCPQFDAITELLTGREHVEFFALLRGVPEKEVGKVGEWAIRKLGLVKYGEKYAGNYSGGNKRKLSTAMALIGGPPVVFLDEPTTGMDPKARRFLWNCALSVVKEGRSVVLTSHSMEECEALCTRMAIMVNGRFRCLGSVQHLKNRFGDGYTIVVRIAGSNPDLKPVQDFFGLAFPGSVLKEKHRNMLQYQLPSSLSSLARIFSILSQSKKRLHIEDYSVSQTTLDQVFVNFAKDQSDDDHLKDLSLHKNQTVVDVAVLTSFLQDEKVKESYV
Procedure: as §1, §2, §3, §4, §5

ABCA4 = target: T6, ABCA4 (Homo sapiens, UniProt P78363); assay: Correlation of ABCA4 expression with drug sensitivity across the NCI-60; format: cell-based; details: Pearson correlation of ABCA4 expression with sensitivity of the 60 cell lines; 1429 compounds; inverse, p < 0.0001
T6 construct: profiled in 60 diverse cancer cell lines (the NCI-60) using real-time RT-PCR; endogenous in cells; host or cells: NCI-60 human cancer cell lines
Procedure: (§6) Expression levels are measured by real-time quantitative RT-PCR using the LightCycler RNA Amplification SYBR Green kit and a LightCycler machine (Roche Biochemicals, Indianapolis, Ind.). Specific oligonucleotide probes are designed for each of the ABC transporters using DNAStar Primer Select (DNASTAR Inc.), and they may be synthesized at Lofstrand Laboratories (Gaithersburg, Md.). When possible, the amplicons are designed to encompass exon-intron boundaries to avoid amplification of genomic DNA. Since the Syber Green assay detects accumulation of double stranded DNA, primers are selected (from a battery consisting of about 200 primers) that amplified a single product of the correct size.
as §2, §3, §4
(§7) To control the overall false type 1 error rate, both a step-down procedure (Westfall and Young, 1993, Resampling-Based Multiple Testing: Examples and Methods for p-value Adjustment (New York: Wiley)) and a step-up procedure (Reiner et al., 2003, Bioinformatics 19:368-375) were employed to adjust for multiple testing of all 47 genes simultaneously. […] In this analysis, the False Discovery Rate (q-value) at which each compound would be declared was calculated using the step-up procedure for positively correlated test statistics (again true because all correlations being compared are computed against the same ABC gene): in this procedure the first q-value for the largest correlation is the Bonferroni-corrected p-value for that gene; then further q-values are calculated as qj=max(pj*1429/j, qj-1). […]

ABCA12 = target: T7, ABCA12 (Homo sapiens, UniProt Q86UK0); assay: Correlation of ABCA12 expression with drug sensitivity across the NCI-60; format: cell-based; details: Pearson correlation of ABCA12 expression with sensitivity of the 60 cell lines; 1429 compounds; inverse, p < 0.0001
T7 construct: profiled in 60 diverse cancer cell lines (the NCI-60) using real-time RT-PCR; endogenous in cells; host or cells: NCI-60 human cancer cell lines
Procedure: as §6, §2, §3, §4, §7

ABCC3 = target: T8, ABCC3 (Homo sapiens, UniProt O15438); assay: Correlation of ABCC3 expression with drug sensitivity across the NCI-60; format: cell-based; details: Pearson correlation of ABCC3 expression with sensitivity of the 60 cell lines; 1429 compounds; inverse, p < 0.0001
T8 construct: profiled in 60 diverse cancer cell lines (the NCI-60) using real-time RT-PCR; endogenous in cells; host or cells: NCI-60 human cancer cell lines
Procedure: as §1, §2, §3, §4
To determine quantitatively how well the 47 genes cluster the cell lines by their tissues of origin, a statistical method is employed wherein the kappa statistic is used to indicate how well the observed clusters correspond to the nine tissue-of-origin classifications. […] To control the overall false type 1 error rate, both a step-down procedure (Westfall and Young, 1993, Resampling-Based Multiple Testing: Examples and Methods for p-value Adjustment (New York: Wiley)) and a step-up procedure (Reiner et al., 2003, Bioinformatics 19:368-375) were employed to adjust for multiple testing of all 47 genes simultaneously. In the Benjamini-Hochberg procedure the p-values are computed in the standard way by permutation, assuming that all distributions are exchangeable: the number of values in the permuted data with correlations over a threshold, divided by the number of compounds and by the number of permutations. In this analysis, the False Discovery Rate (q-value) at which each compound would be declared was calculated using the step-up procedure for positively correlated test statistics (again true because all correlations being compared are computed against the same ABC gene): in this procedure the first q-value for the largest correlation is the Bonferroni-corrected p-value for that gene; then further q-values are calculated as qj=max(pj*1429/j, qj-1). This procedure limits the expected proportion of false positives in the list 1, . . . , j to at most qj.

CC1=CC(=O)C(C)=CC1=O [NSC 15309]
Correlation (ABCB11): −0.4683

COc1cc2c(cc1Oc1c(Oc3c(O)c(OC)cc4c3C(CC(C)C)N(C)CC4)c(OC)cc3c1C(CC(C)C)N(C)CC3)C(CC(C)C)N(C)CC2 (stereo not shown) [NSC 21075]
Correlation (ABCC5): −0.3650

CCS(=O)(=O)O.CN(C)C(=O)c1cccc(COc2ccc(N3C(N)=NC(N)=NC3(C)C)cc2Cl)c1 [NSC 139105, Baker's soluble antifol, reference compound]
Reversal of resistance by verapamil (MDR1; verapamil, inhibitor of MDR1 transport (Gupta et al., 1988)): reversed by verapamil
Relationship between drug sensitivity and ABCB1 expression (in words) (ABCB1): inversely correlated

C=CCn1c2ccccc2c2c(C)c3cnccc3c(C)c21 [NSC 150834]
Correlation (ABCB11): −0.5267

COc1ccc2c(c1)c1c(C)c3c[n+](C)ccc3c(C)c1n2C [NSC 155694]
Correlation (ABCC5): −0.4494

COc1cc2cc3c4cc(OC)c(OC)cc4cc[n+]3c(C)c2cc1OC [NSC 156625, Coralyne]
Interaction with MDR1 (MDR1): interact with MDR1
Correlation (ABCB1): −0.4657

CCOC(=O)CNC(=O)NC12CC3CC(CC(C3)C1)C2 [NSC 208914]
Correlation (ABCC1): −0.4950

CN1N=C(N)c2cn([C@@H]3O[C@H](COP(=O)(O)O)[C@@H](O)[C@H]3O)c3ncnc1c23 [NSC 280594]
Correlation (ABCB5): −0.3477

CC1(C)C[C@]23[C@@H]4COC(=O)[C@H]2CC[C@H]1[C@@H]3CC4=O [NSC 284437]
Correlation (ABCB11): −0.5273

O=C1C(CO)=C[C@H](O)[C@H]2O[C@@H]12 [NSC 326233]
Correlation (ABCB11): −0.4430

CC(=O)O[C@@H]1[C@@H](O)[C@H](O[C@H]2[C@H](OC(=O)[C@H]3CC[C@@H]4[C@H](C3)O[C@@]3(C[C@H](OC(=O)/C=C/c5ccccc5)[C@H](C)CO3)[C@]43CO3)O[C@H](C)[C@@H](O)[C@@H]2OC(C)=O)O[C@H](C)[C@H]1O [NSC 328426, phyllanthoside]
Correlation (ABCA1): −0.2806
Interaction with MDR1 (MDR1): interact with MDR1
Correlation (ABCB1; Pearson correlation of ABCB1 expression with sensitivity of the 60 cell lines, 1429 compounds, inverse, p < 0.0001): −0.7784

Cc1c2ccnc(C(N)=O)c2c(C)c2c1[nH]c1ccccc12.Cl [NSC 335142]
Correlation (ABCB11): −0.4214

CS(=O)(=O)[O-].Cc1c2cc[n+](C)cc2c(C)c2c1[nH]c1ccccc12 [NSC 352299]
Correlation (ABCC5): −0.4318

Cc1c2cc[n+](Cc3ccc(I)cc3)cc2c(C)c2c1[nH]c1ccccc12 [NSC 604574]
Correlation (ABCC5): −0.4123

C=C(c1ccccc1)[C@@]1(O)CC[C@@H]1N(CC#N)Cc1ccccc1 [NSC 617644]
Correlation (ABCC1): −0.5087

CC1=C(C(=O)Nc2ccccc2)C(c2ccc(N(C)C)cc2)C(C(=O)Nc2ccccc2)=C(C)N1 [NSC 636092]
Correlation (ABCA4): −0.3977

CC[n+]1c(/C=C/c2ccc(N(CCCl)CCCl)cc2)ccc2cc(NC(=O)/C=C/c3ccccc3)ccc21.[I-] [NSC 640085]
Correlation (ABCA1): −0.3580

COC(=O)c1ccccc1NC(=O)C(=O)CC(=O)c1ccccc1NC1=CC(=O)C(=O)c2ccccc21 [NSC 641240]
Correlation (ABCA12): −0.5165
Correlation (ABCC3): −0.5829

Cc1oc2c(c1C(=O)c1ccccc1)C(=O)c1ccccc1C2=O [NSC 641594]
Correlation (ABCC3): −0.4994
Correlation (ABCC1): −0.4324

O=C1C=C(Nc2ccccc2C(=O)CC(=O)C(=O)Nc2cccc(C(F)(F)F)c2)c2ccccc2C1=O [NSC 644751]
Correlation (ABCA12): −0.5643
Correlation (ABCC3): −0.5748

COC1=C(OC)C(=O)c2cc(C)c(=O)c(C)cc2C1=O [NSC 649666]
Correlation (ABCA12): −0.3757

COc1cc(CNc2ccc(SC)cc2)cc(OC)c1OC [NSC 650771]
Correlation (ABCA4): −0.3792

COc1cc2c(cc1O)CC[C@@H]1[C@@H]2CC[C@]2(C)[C@@H](O)CC[C@@H]12 [NSC 659853]
Correlation (ABCA12): −0.5016

Cc1cc(C)c2c(=O)cc(-c3ccccc3)[nH]c2c1 [NSC 665925]
Correlation (ABCA4): −0.4545

CC1C(c2ccc3c(c2)OCO3)c2cc3c(cc2OC1N1CCOCC1)OCO3 (stereo not shown) [NSC 666222]
Correlation (ABCC1): −0.3675

OCC1OC(c2scc3c(=S)nc[nH]c23)C(O)C1O (stereo not shown) [NSC 670036]
Correlation (ABCB5): −0.4561

COC(=O)CCC(=O)NC1=C(Nc2ccccc2)C(=O)c2ccccc2C1=O [NSC 670762]
Correlation (ABCC1): −0.4326

CC(=O)Oc1ccc(C2(c3ccc(F)cc3)OC(=O)c3ccccc32)c(C)c1 (stereo not shown) [NSC 671456]
Correlation (ABCB5): −0.3650

OCCO[P+]1(OCCO)n2c3ccc2C(c2ccccc2)=C2C=CC(=N2)C(c2ccccc2)=c2ccc(n21)=C(c1ccccc1)C1=NC(=C3c2ccccc2)C=C1 [NSC 682066]
Correlation (ABCA1): −0.3783
Correlation (ABCB1): −0.7985

C=C1[C@H](OCC(C)C)[C@@H](O)[C@@H](OC(=O)c2cccnc2)C(C)(C)/C=C/[C@H](C)[C@H](OC(C)=O)[C@@]2(O)C[C@@](C)(OC(C)=O)[C@H](OC(=O)c3ccccc3)[C@@H]2[C@H]1OC(C)=O [NSC 688235]
Correlation (ABCA4): −0.3557

CN(C)CC1CCC/C(=C\c2ccc(OC(=O)/C=C/c3ccc(Cl)c(Cl)c3)cc2)C1=O.Cl (stereo not shown) [NSC 693443]
Correlation (ABCB5): −0.3300
Pearson's Correlation Coeff (ABCB1): 0.1842

C=C1C(=O)O[C@H]2[C@@H](O)[C@H](C)CCC/C(C)=C/CC[C@@]3(C)O[C@@H]3C[C@@H]12 [NSC 694509]
Correlation (ABCB5): −0.2924
Pearson's Correlation Coeff (ABCB1): 0.2823

CN(C)c1ccc(/C=c2/c3ccccc3n3c2cc(-c2ccc(Cl)cc2)[n+]3C)cc1.O=S(=O)([O-])C(F)(F)F [NSC 699479]
Correlation (ABCA1): −0.4141
